# Reference: publication PMC11234460, “In Silico Discovery of Stapled Peptide Inhibitor Targeting the Nur77‐PPARγ Interaction and Its Anti‐Breast‐Cancer Efficacy” (Advanced Science, 2024)
# Where a SMILES comes first, the peptide text is derived from it. Bridges are numbered along the chain shown (N, C = ends). [ ]: non-standard residue; d: D form. S5 = C=CCCC[C@](C)(N)C(=O)O
# What was measured:
# [1] = system: MDA-MB-231-GFP tumor tissue; assay: LC/MS targeted lipid metabolome of xenograft tumor tissue; format: in vivo, mouse; details: compared with the control group
# Description: To establish the bone metastasis tumor model, 1×10^5 cells were injected into the left ventricle of each mouse (7–8 weeks old), and surgery was monitored using a cardiac ultrasound instrument. The mice were randomly divided into three groups and treated with PBS (control group, n = 6), 5 mg kg^−1 ST‐CY14 (n = 6), and 10 mg kg^−1 ST‐CY14 (n = 6) Tumor cell metastasis was monitored using an in vivo imaging instrument (IVIS Spectrum, PerkinElmer, USA). by intraperitoneal injection of 20 mg kg^−1 D‐luciferin. The mice were treated with ST‐CY14 via intravenous injection using a 100 µL PBS solution every 2 days starting on the designated day after tumor cell injection. Bone tissue with MDA‐BoM‐1833 cell metastasis was obtained and stained for TRAP. The mice sera were collected and analyzed for BSP and β‐CTx levels using ELISA (Lengton, BPE10823, BPE10438). For the orthotopic xenograft tumor model, 3×10^6 cells were injected into the fourth pair of breast pads on the left side of the mouse (4–5 weeks old). The mice were treated with ST‐CY14 every two days once the tumor volume reached 30–50 mm^3, with the same groups as in the bone metastasis tumor model. […]
# [2] = system: MDA-MB-231-GFP tumor tissue; assay: Transcriptome analysis of xenograft tumor tissue; format: in vivo, mouse; details: 10 mg group
# Description: To establish the bone metastasis tumor model, 1×10^5 cells were injected into the left ventricle of each mouse (7–8 weeks old), and surgery was monitored using a cardiac ultrasound instrument. The mice were randomly divided into three groups and treated with PBS (control group, n = 6), 5 mg kg^−1 ST‐CY14 (n = 6), and 10 mg kg^−1 ST‐CY14 (n = 6) Tumor cell metastasis was monitored using an in vivo imaging instrument (IVIS Spectrum, PerkinElmer, USA). by intraperitoneal injection of 20 mg kg^−1 D‐luciferin. The mice were treated with ST‐CY14 via intravenous injection using a 100 µL PBS solution every 2 days starting on the designated day after tumor cell injection. Bone tissue with MDA‐BoM‐1833 cell metastasis was obtained and stained for TRAP. The mice sera were collected and analyzed for BSP and β‐CTx levels using ELISA (Lengton, BPE10823, BPE10438). For the orthotopic xenograft tumor model, 3×10^6 cells were injected into the fourth pair of breast pads on the left side of the mouse (4–5 weeks old). The mice were treated with ST‐CY14 every two days once the tumor volume reached 30–50 mm^3, with the same groups as in the bone metastasis tumor model. The tumors were collected and stained for H&E, Ki‐67, and TUNEL assays, which were conducted by Wuhan Servicebio Technology Co., Ltd. Major organs (heart, liver, spleen, lung, and kidney) were also collected for H&E analysis by Wuhan Servicebio Technology Co., Ltd. The Transcriptome and LC/MS targeted lipid metabolome were sequenced by OE Biotech, Inc., Shanghai, China. To evaluate the efficacy of Csn‐B in inhibiting breast cancer bone metastasis, an animal model was established as described above. The mice were randomly divided into three groups and treated with PBS (control group, n = 6), 10 mg kg^−1 ST‐CY14 (n = 6) in 100 µL PBS solution, and 5 mg kg^−1 ST‐CY14 (n = 6) in a 100 µL mixed solution (5% DMSO, 20% PEG 400, 5% Tween 80, and 70% normal saline) via intravenous injection every 2 days starting on the designated day after tumor cell injection.
# MCF7 cells = assay: Energy metabolism analysis (Seahorse OCR); format: cell-based, human; details: MCF7, 24 h treatment, n = 3
# Description: Cell energy metabolism analysis was conducted using a Seahorse cell energy metabolism analyzer (Agilent, USA). In brief, 8000 cells were seeded per well in a 96‐well XF96 plate (Agilent, 103794‐100) and cultured overnight. Subsequently, the cells were treated with various concentrations of peptides for 24 h. To prepare for metabolic stress injections, cartridge plates (Agilent, w15023) were hydrated with H2O for at least 12 h at 37 °C before the assay. 1 h before detection, the medium in each well was replaced with 180 µL XF calibrant solution (Agilent, 100840‐000), Afterward, the cell plate was replaced with 180 µL XF DMEM (Agilent, 103575‐100) with glucose (1 × 10^−2 M) (Agilent, 103577‐100), pyruvate (1 × 10^−3 M) (Agilent, 103578‐100) and glutamine (2 × 10^−3 M) (Agilent, 103579‐100) and the mixture was incubated in a CO2‐free incubator at 37 °C for 1 h. Then, 20 µL basic medium, 22 µL 1.5 × 10^−4 M oligomycin, 25 µL 1.5 × 10^−4 M FCCP, and 27 µL 5 × 10^−5 M ROT/AA (Agilent, 10315‐100) were added to wells A, B, C, and D, respectively, of the cartridge plates. The assay was carried out according to the manufacturer's instructions, and the OCR was reported in picomoles per min. The results were normalized to the cell number determined by the CCK‐8 assay.
# Nur77-LBD = molecular target: T1, Nur77-LBD (Homo sapiens, UniProt P22736); assay: Surface plasmon resonance (SPR), Biacore T200; format: binding; details: read-out: ka (SPR)
# T1 construct: The LBD fragment of human Nur77 (residues 351–598), tagged with an N‐terminal His6‐tag; His6 (N); made in house; host or cells: Escherichia coli BL21(DE3)
# Description: ST‐CY14 with Nur77‐LBD was detected by SPR using the Biacore T200 system at 25 °C. Recombinant human Nur77‐LBD protein was immobilized on an activated carboxymethylated 5 sensor chip (GE Healthcare) using the amine coupling method. Gradient concentrations of […] were injected at a flow rate of 30 µL min^−1 in a running buffer (1% DMSO in PBS). The results were analyzed with Biacore evaluation software (T200 version 2.0). The data were fitted to the 1:1 Langmuir binding model, and kinetic parameters were derived.
# T1 sequence (P22736 351-598): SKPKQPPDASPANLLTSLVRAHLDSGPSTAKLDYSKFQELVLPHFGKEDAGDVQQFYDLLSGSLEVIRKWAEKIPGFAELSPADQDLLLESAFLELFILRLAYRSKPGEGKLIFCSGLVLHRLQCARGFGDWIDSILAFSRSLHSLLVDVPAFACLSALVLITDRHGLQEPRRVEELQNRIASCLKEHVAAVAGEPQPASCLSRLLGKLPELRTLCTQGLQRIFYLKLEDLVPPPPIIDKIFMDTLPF
compound,measurement,setting,value
C[C@@H](O)[C@@H]1NC(=O)[C@H](CCCNC(=N)N)NC(=O)[C@H](CCCNC(=N)N)NC(=O)[C@@](C)(NC(=O)[C@H](Cc2ccccc2)NC(=O)CNC(=O)[C@H](CCCCN)NC(=O)[C@H](CS)NC(=O)CNC(=O)[C@H](CCC(=O)O)NC(=O)[C@@H](N)CS)CCCC=CCCC[C@@](C)(C(=O)N[C@@H](CCCNC(=N)N)C(=O)N[C@@H](Cc2ccc(O)cc2)C(=O)N[C@@H](Cc2ccc(O)cc2)C(=O)NCC(=O)N[C@@H](CCCNC(=N)N)C(=O)N[C@@H](CCCCN)C(=O)N[C@@H](CCCCN)C(=O)N[C@@H](CCCNC(=N)N)C(=O)N[C@@H](CCCNC(=N)N)C(=O)N[C@@H](CCC(N)=O)C(=O)N[C@@H](CCCNC(=N)N)C(=O)N[C@@H](CCCNC(=N)N)C(=O)N[C@@H](CCCNC(=N)N)C(N)=O)NC1=O [ST-CY14] (H-CEGCKGF[S5]RRT[S5]RYYGRKKRRQRRR-NH2; staple 8-12),"Relative abundance of lipid content (FA, PC, TAG, PE) in tumor tissue",[1],decreased
same,AGT expression in tumor tissue (transcriptome),[2]; sample 1,0.07902
same,ANGPTL4 expression in tumor tissue (transcriptome),[2]; sample 1,3.636
same,CD36 expression in tumor tissue (transcriptome),[2]; sample 1,0
same,CD74 expression in tumor tissue (transcriptome),[2]; sample 1,0.3461
same,CNR1 expression in tumor tissue (transcriptome),[2]; sample 1,0.02158
same,CYP3A5 expression in tumor tissue (transcriptome),[2]; sample 1,0.3686
same,FABP4 expression in tumor tissue (transcriptome),[2]; sample 1,0.03159
same,INSL5 expression in tumor tissue (transcriptome),[2]; sample 1,0
same,ITGAL expression in tumor tissue (transcriptome),[2]; sample 1,0.005294
same,OAS1 expression in tumor tissue (transcriptome),[2]; sample 1,0.1526
same,OLAH expression in tumor tissue (transcriptome),[2]; sample 1,0.7465
same,PLIN1 expression in tumor tissue (transcriptome),[2]; sample 1,0.1271
same,POLR2J3 expression in tumor tissue (transcriptome),[2]; sample 1,0.1542
same,PTPRC expression in tumor tissue (transcriptome),[2]; sample 1,0.09088
same,PYY expression in tumor tissue (transcriptome),[2]; sample 1,0.3061
same,RNF152 expression in tumor tissue (transcriptome),[2]; sample 1,0.2243
same,SLX1B expression in tumor tissue (transcriptome),[2]; sample 1,0.4199
same,UTS2B expression in tumor tissue (transcriptome),[2]; sample 1,0.2634
same,VAMP7 expression in tumor tissue (transcriptome),[2]; sample 1,0.394
same,ZNF404 expression in tumor tissue (transcriptome),[2]; sample 1,0.5136
same,ZNF429 expression in tumor tissue (transcriptome),[2]; sample 1,0.01399
same,AGT expression in tumor tissue (transcriptome),[2]; sample 2,0.282
same,ANGPTL4 expression in tumor tissue (transcriptome),[2]; sample 2,6.216
same,CD36 expression in tumor tissue (transcriptome),[2]; sample 2,0.00582
same,CD74 expression in tumor tissue (transcriptome),[2]; sample 2,0.2008
same,CNR1 expression in tumor tissue (transcriptome),[2]; sample 2,0.02567
same,CYP3A5 expression in tumor tissue (transcriptome),[2]; sample 2,0.2054
same,FABP4 expression in tumor tissue (transcriptome),[2]; sample 2,0
same,INSL5 expression in tumor tissue (transcriptome),[2]; sample 2,1.442
same,ITGAL expression in tumor tissue (transcriptome),[2]; sample 2,0
same,OAS1 expression in tumor tissue (transcriptome),[2]; sample 2,0.4448
same,OLAH expression in tumor tissue (transcriptome),[2]; sample 2,0.9577
same,PLIN1 expression in tumor tissue (transcriptome),[2]; sample 2,0.01163
same,POLR2J3 expression in tumor tissue (transcriptome),[2]; sample 2,0.3872
same,PTPRC expression in tumor tissue (transcriptome),[2]; sample 2,0.01081
same,PYY expression in tumor tissue (transcriptome),[2]; sample 2,1.722
same,RNF152 expression in tumor tissue (transcriptome),[2]; sample 2,0.1875
same,SLX1B expression in tumor tissue (transcriptome),[2]; sample 2,0.5583
same,UTS2B expression in tumor tissue (transcriptome),[2]; sample 2,0.2673
same,VAMP7 expression in tumor tissue (transcriptome),[2]; sample 2,0.4688
same,ZNF404 expression in tumor tissue (transcriptome),[2]; sample 2,0.685
same,ZNF429 expression in tumor tissue (transcriptome),[2]; sample 2,0.06657
same,AGT expression in tumor tissue (transcriptome),[2]; sample 3,0.02516
same,ANGPTL4 expression in tumor tissue (transcriptome),[2]; sample 3,3.683
same,CD36 expression in tumor tissue (transcriptome),[2]; sample 3,0.004672
same,CD74 expression in tumor tissue (transcriptome),[2]; sample 3,0.1451
same,CNR1 expression in tumor tissue (transcriptome),[2]; sample 3,0.07831
same,CYP3A5 expression in tumor tissue (transcriptome),[2]; sample 3,0.312
same,FABP4 expression in tumor tissue (transcriptome),[2]; sample 3,0.06034
same,INSL5 expression in tumor tissue (transcriptome),[2]; sample 3,0.1867
same,ITGAL expression in tumor tissue (transcriptome),[2]; sample 3,0
same,OAS1 expression in tumor tissue (transcriptome),[2]; sample 3,0.2478
same,OLAH expression in tumor tissue (transcriptome),[2]; sample 3,1.048
same,PLIN1 expression in tumor tissue (transcriptome),[2]; sample 3,0
same,POLR2J3 expression in tumor tissue (transcriptome),[2]; sample 3,0.1963
same,PTPRC expression in tumor tissue (transcriptome),[2]; sample 3,0.04774
same,PYY expression in tumor tissue (transcriptome),[2]; sample 3,0.5582
same,RNF152 expression in tumor tissue (transcriptome),[2]; sample 3,0.2258
same,SLX1B expression in tumor tissue (transcriptome),[2]; sample 3,0.5662
same,UTS2B expression in tumor tissue (transcriptome),[2]; sample 3,0.1702
same,VAMP7 expression in tumor tissue (transcriptome),[2]; sample 3,0.3548
same,ZNF404 expression in tumor tissue (transcriptome),[2]; sample 3,0.3567
same,ZNF429 expression in tumor tissue (transcriptome),[2]; sample 3,0.0501
same,Oxygen consumption rate (OCR),MCF7 cells,significantly reduced
same,kon,Nur77-LBD,1.6e+06 M⁻¹ s⁻¹
